Results from US12070458B2, “Therapeutic agent composition and method of use, for treatment of mild congnitive impairment, depression, and psychological disorders” (priority 2018, dated 2024).

Key:
[1] = system: patients with major depressive disorder; experiment: Double-blind, randomized, placebo-controlled, active reference study in patients with major depressive disorder; assay type: in vivo, human; settings: for change from baseline in MADRS total score, Mean ± SD / MADRS total score, Difference to Placebo: week 6, venlafaxine 75 mg/d orally
Description: This randomized, double-blind, fixed-dose, placebo-controlled, active reference study recruited 32 randomized patients in accordance with the principles of Good Clinical Practice [ICH (1996). Harmonized Tripartite Guideline E6: Guideline for Good Clinical Practice (http://www.fda.gov/downloads/drugs/guidancecomplianceregulatoryinformation/gui dances/ucm073122.pdf)] and the Declaration of Helsinki [WMA (1964). Ethical Principles for Medical Research Involving Human Subjects (http://www.wma.net/en/30publications/10policies/b3/). World Medical Association.] Local ethics committees approved the study design and eligible patients gave their written informed consent before participating.
Eligible patients were randomized equally (1:1:1:1) to one of the four treatment arms for a 6-week double-blind treatment period. Randomized patients were given 1-week wallet cards at each visit and were instructed to take two capsules per day, orally, at the same time every day (preferably in the morning). NA-831 was dosed at 20 mg/day or 40 mg/d for 6 week and venlafaxine at 75 mg/d over 6-week treatment period. Efficacy and tolerability were assessed at screening, baseline and after 1, 2, 3, 4, 5, and 6 week. Patients were contacted for a safety follow-up 4 week after the completion visit.
Patients with MDD presenting with a current major depressive episode according to DSM-IV-TR criteria were included in the study if they were an outpatient of either sex, aged from 20 yr to 65 yr, (mean=39.7±8.5) (with a Montgomery—Åsberg Depression Rating Scale (MADRS) (Montgomery & Åsberg, 1979) total score ≥30 at the baseline visit. [Montgomery S Åsberg M (1979). A new depression scale designed to be sensitive to change. British Journal of Psychiatry 134 382-389.https://doi.org/10.1192/bjp.134.4.382]
Patients were evaluated using the MADRS from baseline to week 6. Rater training was undertaken to increase inter-rater reliability, and was supervised by an experienced investigator. Only those investigators who had actively participated in rater training sessions prior to inclusion of patients into the study were allowed to rate patients. Patient ratings were assessed by the same investigator at each visit, whenever possible.
All safety analyses were based on the all-patients-treated set (APT), comprising all randomized patients who took at least one dose of study medication. All efficacy analyses were based on a modified intent-to-treat set (ITT)—the full-analysis set (FAS), comprising all patients in the […] who had at least one valid post-baseline MADRS total score assessment.
Four hypotheses were part of the primary efficacy analysis, which was fully adjusted for multiplicity using a hierarchical testing procedure at the 5% level of significance as long as the previous hypothesis was rejected. The order of testing was: no difference between the 20 mg dose vs. placebo at week 6, no difference between […] at week 6, no difference between 20 mg dose vs. placebo at week 1, and finally no difference between 40 mg dose vs. placebo at week 1. The statistical model was an analysis of covariance (ANCOVA) of the change from baseline in MADRS total score (FAS, LOCF) with treatment and site as fixed factors and the baseline MADRS score as a covariate. The primary efficacy analysis was repeated on observed cases (OC) data, using both an ANCOVA and a mixed model for repeated measurements (MMRM).
All adverse effects (AEs) (including any change in concurrent illnesses or new illnesses) either observed by the investigator or reported spontaneously by the patient were recorded. AEs were coded using the lowest level term according to the Medical Dictionary for Regulatory Activities, version 10.0. As a post-hoc analysis, the safety database was searched at preferred-term and verbatim-term level for possible suicide-related AEs, as described by the FDA [Laughren (2006). Memorandum on Suicidality. (http://www.fda.gov/ohrms/dockets/ac/06/briefing/2006-4272b1-01-fda.pdf)].

[2] = system: cerebellar microexplants (P4); experiment: Glutamate induced neuronal death in cerebellar microexplants (P4); assay type: cell-based, Wistar rats
Experimental: Cerebellar Cell Culture Preparing and Coating of Cover Slips
Ten coverslips were placed into a large petri dish and washed in 70% alcohol for 5 minutes, then washed with Millipore H2O. The coverslips were air dried, then coated with Poly-D-Lysine (1 mg/ml stock solution in PBS, 90-100 μl) and incubated for 2 hours at 34° C.
Postnatal day 4 Wistar rats were used for the study. Rats were placed in ice for 1 minute, the heads were decapitated and the cerebellum removed on ice. Cerebellum tissue was placed in 1 ml of 0.65% glucose supplemented PBS (10 μl 65% stock D (+)glucose/1 ml PBS) in a large petri dish, chopped up into smaller sections and triturate with a 1 ml insulin syringe via a 23 G (0.4 mm) needle, and then squirted back into the glucose solution on the large petri dish. The tissue was sieved through (125 μm pore size gaze) and centrifuged (2 minutes at 60 g) two times for a medium exchange into serum-free BSA-supplemented START V medium (Biochrom). The second centrifugation step was done with 1 ml of START V medium. The microexplants were reconstituted into 500 μl of START V medium and put on ice.
Cultivation and Fixation of Cerebellar Cells
Two hours after PDL-coating, the slides were washed with Millipore H2O and air dried. Each slide was placed into a small 35 mm petri dish and 40 μl of START V/cell suspension added. The tissue was incubated for 2 hours at 34° C. (settlement period). START V-medium (1 ml) was then added to the petri dish and cultivated at 34° C./5% CO2/100% humidity for 48 hours. Cells were rinsed in PBS and then fixed for 2-3 minutes in increasing concentrations of paraformaldehyde (500 μl of 0.4% PFA was applied; then 1.2% PFA; then 3% PFA and finally 4% PFA—all fixation solutions contain 0.2% glutardialdehyde). Finally, the microexplants were rinsed in PBS.
(§1) 10 μl of toxin (L-glutamate-100 mM in Millipore water) was applied simultaneously with cPG (from bachem, 10 mM stock prepared in PBS and diluted to final concentrations between 1-100 nM) for Study 1. A delay in administration of cPG at 6 hours after glutamate treatment was performed for Study 2.
as §1, with “cyclic(tri(prolylglycyl)) (which was obtained from NeuroBiomed, San Jose, California),” for “cPG (from bachem,”, “cyclic(tri(prolylglycyl))” for “cPG”
as §1, with “cyclic Glycyl-2-Methyl Proline (obtained NeuroBiomed, San Jose California),” for “cPG (from bachem,”

[3] = system: 6-OHDA induced nigral-striatal lesion; experiment: 6-OHDA induced nigral-striatal lesion, apomorphine-induced contralateral rotations; assay type: in vivo, Wistar rats; settings: 1 mg (mg/kg) i.p. 2 hours post lesion; 7 days post-lesion, apomorphine 0.1 mg/kg; n=5; vehicle 290±18 or 292±21
Experimental: Twenty male Wistar rats (280-310 g) were used. After exposing the skull, 6-OHDA (8 μg in a base of 2 μl 0.9% saline containing 1% ascorbic acid) was administered into the right medial forebrain bundle (MFB) using co-ordinates AP +4.7 mm, R 1.6 mmv −8 mm under 3% halothane anaesthesia. 6-OHDA was injected through a 25G needle connected via a polyethylene catheter to a 100 μl Hamilton syringe. The 6-OHDA was infused by a microdialysis infusion pump at a rate of 0.5 μl/min. The needle was left in the brain for a further 3 minutes before being slowly withdrawn. The skin was sutured with 2.0 silk and the rats were allowed to recover from anaesthesia. The rats were housed in a holding room with free access to food and water at all times except during behavioural testing.
Cyclic PG was dissolved in saline. Four different doses of cPG (0, 0.1, 0.5, 1 mg/kg, Bachem) were administered intraperitoneally 2 hours post lesion.
At 7 days post-lesion, rats were injected with 0.1 mg/kg apomorphine and the number of contralateral rotations/hour was recorded and calculated using a computerised Rotameter (St Diego Instruments). Experimenter was blinded from the treatment groups.
Cyclic(tri(prolylglycyl)) was dissolved in saline solution. Four different doses of Cyclic(tri(prolylglycyl)) (0, 0.1, 0.5, 1 mg/kg, NeuroBiomed) were administered intraperitoneally 2 hours post lesion.
Cyclic Glycyl-2-Methyl Proline (cGMeP) was dissolved in saline solution. Four different doses of cGMeP (0, 0.1, 0.5, 1 mg/kg, NeuroBiomed) were administered intraperitoneally 2 hours post lesion.

SMILES	patients with one or more AEs ([1]; 6-week treatment period, venlafaxine group) [%]	change from baseline in MADRS total score, Mean ± SD ([1]; LOCF, ANCOVA)	MADRS total score, Difference to Placebo ([1]; MMRM)	change from baseline in MADRS total score, Mean ± SD ([1]; MMRM)	MADRS total score, Difference to Placebo ([1]; MMRM, listed as venlafaxine)	MADRS total score, Difference to Placebo ([1]; OC, ANCOVA)	change from baseline in MADRS total score, Mean ± SD ([1]; OC, ANCOVA)	patients withdrawn due to AEs ([1]; venlafaxine group)	AEs reported by a majority of patients ([1]; venlafaxine group, 6 week)	improvement, recovery from glutamate induced neurotoxicity ([2]; 1-100 nM given 6 hours after the glutamate treatment, compared to vehicle)	reduction of glutamate induced neuronal death ([2]; administered simultaneously with glutamate, 1-100 nM, glutamate alone 85% loss of neurons) [%]	number of contralateral rotations/hour [3] [rotations/hour]
COc1ccc(C(CN(C)C)C2(O)CCCCC2)cc1 (stereo not drawn) [Venlafaxine, reference compound]	75	−21.9 ± 1.0	−8.1 ± 1.3	−23.5 ± 0.9	5.6±1.3	−5.6 ± 1.3	−22.2 ± 0.9	2 (25%) patients (%)	nausea, severe headache loss of strength, blurred vision, chest pain, fast or irregular heartbeat and suicidal thoughts			
CC12CCCN1C(=O)CNC2=O [cGMeP, (8aS)-Methyl-hexahydropyrrolo[1,2-a]pyrazine-1,4-dione]										approximately 58%	63	134±69
